Positions count from the first letter of the chain named.

Data on one compound can be found in patent publication US9278942B2, “Non-steroidal compounds as androgen receptor modulators” (FLX Discoveries Oy, priority 2011, dated 2016).

The target of one assay is T1, human AR (Homo sapiens, UniProt P10275).
T1 construct: expressed in transfected cells; host or cells: COS-1
T1 sequence (P10275 1-920): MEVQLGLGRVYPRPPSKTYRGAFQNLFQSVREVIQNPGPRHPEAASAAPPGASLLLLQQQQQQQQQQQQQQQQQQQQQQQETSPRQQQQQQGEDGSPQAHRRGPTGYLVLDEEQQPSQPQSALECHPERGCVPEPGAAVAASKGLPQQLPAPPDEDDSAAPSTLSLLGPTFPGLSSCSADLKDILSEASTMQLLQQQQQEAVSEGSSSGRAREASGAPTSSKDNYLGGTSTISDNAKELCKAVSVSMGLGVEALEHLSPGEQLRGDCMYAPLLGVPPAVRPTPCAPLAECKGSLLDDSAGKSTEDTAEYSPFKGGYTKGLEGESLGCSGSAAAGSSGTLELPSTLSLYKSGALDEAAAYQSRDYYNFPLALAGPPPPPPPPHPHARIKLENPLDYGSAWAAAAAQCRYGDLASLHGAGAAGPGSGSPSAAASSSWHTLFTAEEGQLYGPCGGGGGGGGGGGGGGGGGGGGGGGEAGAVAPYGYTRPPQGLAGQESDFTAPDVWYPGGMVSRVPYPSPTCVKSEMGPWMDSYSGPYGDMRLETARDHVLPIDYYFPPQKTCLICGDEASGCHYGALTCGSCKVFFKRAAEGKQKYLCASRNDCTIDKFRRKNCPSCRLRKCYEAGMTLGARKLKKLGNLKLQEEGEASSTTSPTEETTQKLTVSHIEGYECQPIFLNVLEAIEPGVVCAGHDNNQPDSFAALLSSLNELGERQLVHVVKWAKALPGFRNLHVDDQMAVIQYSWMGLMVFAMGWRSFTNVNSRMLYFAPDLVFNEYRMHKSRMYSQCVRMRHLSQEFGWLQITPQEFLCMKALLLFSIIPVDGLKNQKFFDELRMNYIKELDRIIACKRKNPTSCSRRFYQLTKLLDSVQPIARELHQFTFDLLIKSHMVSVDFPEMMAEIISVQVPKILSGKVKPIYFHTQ
The experiment in a line: AR antagonism assay: inhibition of transcriptional activation of AR (Probasin-luc reporter, COS-1 cells). It counts as cell-based. Conditions: compound 10.0 μM; relative luciferase response: 100% for testosterone (no antiandrogenic effect), 0% for complete antagonism. The method in brief: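 COS-1 cells transfected 24 h with human AR vector, Probasin-luc reporter and β-gal control, then exposed 18 h at 37 °C to 10 μM compound plus 100 nM testosterone. Luciferase read-out normalised to β-galactosidase activity and protein content.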

In assay [1] the target is T2, LNCaP (containing an AR mutation) (Homo sapiens, UniProt P10275, T878A).
T2 sequence (P10275 1-920 T878A): T1 sequence (P10275 1-920) with T878A
The following applies: LNCaP prostate cancer cells; cited from earlier work.

Take `CC(C)(O)C(=O)Nc1ccc([N+](=O)[O-])c(C(F)(F)F)c1` [Hydroxyflutamide, reference compound]: on human AR, the “AR antagonism against 100 nM testosterone ± S.D.” value was found to be 13.0 ± 1.1%. Also, the “Activity of hydroxyflutamide at the AR mutation of LNCaP cells” value in assay [1] is given as “agonist”.
